Source: US20240368153A1, “Aminopyridine-based MTA-Cooperative PRMT5 Inhibitors” (Mirati Therapeutics, Inc., priority 2021, published 2024)
pIC50, pKd: −log10 of the molar value.

Tests used:
PRMT5/MEP50 complex [1] = molecular target: T1, PRMT5/MEP50 complex (Homo sapiens (Human), UniProt O14744); test: PRMT5:MEP50 HotSpot Assay; type: biochemical; settings: read-out: IC50 + 2 μM MTA, full-length histone H2A, presence of 2 μM MTA
Method: The assay uses recombinant full-length histone H2A as the PRMT5 substrate. Enzymatic transfer of the tritiated methyl group from S-adenosyl-L-[methyl-3H]methionine to the histone H2A protein generated a radiolabeled histone […] in a scintillation counter to determine the activity of PRMT5 enzyme in the presence and absence of compound. […] Briefly, compounds of the present invention were solubilized in 100% DMSO at a highest concentration of 10 mM. […] Control samples lacking compound, PRMT5/MEP50 complex or various reaction components also were prepared and processed in parallel with compound test samples. SAH was used as a positive control for assay validation. To measure PRMT5 inhibitory activity. 1 nM PRMT5/MEP50 complex (Reaction Biology Corporation) was preincubated with test compound in assay buffer containing 5 μM full-length histone H2A for 20 min at room temperature. The enzymatic reaction was initiated by adding 1 μM tritiated S-adenosyl methionine (final concentration) and the reaction was allowed to proceed for 60 min. The reaction was stopped and transferred to filter paper for detection. The amount of tritiated H2A in each sample was determined using a scintillation counter.

[2] = molecular target: recombinant human dual expressed Avi PRMT5/His-MEP50 protein (Homo sapiens (Human), UniProt O14744); test: HTRF binding assay in presence of MTA; settings: 30 μM MTA
In short: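 HTRF tracer-displacement binding using human Avi-PRMT5 (2-637)/His-MEP50 (2-342), baculovirus-expressed, with 30 μM MTA and 5 nM in-house tracer in 25 mM ADA pH 7.2, 1 mM TCEP, 50 mM NaCl, 0.002% Tween. Overnight at 2-8° C, then 0.5 nM anti-His-Tb 1 hr RT; 665/620 ratio ×10000.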

[3] = molecular target: PRMT5•MTA (biotinylated PRMT5-MEP50) (Homo sapiens (Human), UniProt O14744); test: SPR binding assay, MTA running buffer; settings: 20 μM MTA running buffer
Method: (§1) SPR screening was performed in MTA running buffer (25 mM Bicine pH 7.6, 100 mM NaCl, 1 mM TCEP, 20 μM MTA, 0.05% Tween-20 and 2% DMSO). The biotinylated PRMT5-MEP50 surface was equilibrated with MTA running buffer for 12 hours prior to the start. […] Subsequently, compound titration was repeated in SAM-running buffer (25 mM Bicine pH 7.6, 100 mM NaCl, 1 mM TCEP, 20 μM SAM, 0.05% Tween-20, and 2% DMSO). […] After double referencing, the steady-state response was extracted for each fragment concentration and was fit to the Langmuir isotherm equation to determine the equilibrium dissociation constant (KD).

[4] = molecular target: PRMT5•SAM (biotinylated PRMT5-MEP50) (Homo sapiens (Human), UniProt O14744); test: SPR binding assay, SAM running buffer; settings: 20 μM SAM running buffer
Method: as §1

PRMT5/MEP50 complex [5] = molecular target: T1, PRMT5/MEP50 complex; test: PRMT5:MEP50 FlashPlate Assay; type: biochemical
Method: The PRMT5 inhibitory activity of compounds of the present invention was determined using a PRMT5:MEP50 FlashPlate Assay (Reaction Biology Corporation).
The assay uses purified human, PRMT5 enzyme to convert S-adenosyl-L-[methyl-^3H]methionine plus histone H4 L-arginine to S-adenosyl-L-homocysteine plus histone H4 [methyl-^3H]-L-arginine. The assay was carried out using Streptavidin-coated FlashPlates (Perkin Elmer), which contained a scintillant embedded in the plastic of the plate. The histone H4 peptide substrate was conjugated with biotin, which binds to the streptavidin-coated well of the plate, placing the H4 peptide in close proximity to the side well and the scintillant. The transfer of the tritiated methyl group from S-adenosyl-L-[methyl-^3H]methionine to the bound histone H4 peptide generated a radiolabeled histone H4, which was quantitated by measuring in a scintillation counter to determine the activity of PRMT5 enzyme in the presence and absence of compound. […] Briefly, compounds of the present invention were solubilized in 100% DMSO at a highest concentration of 10 mM. For IC, determinations, the initial starting concentration for the serial dilutions of each compound was 50 μM. Control samples lacking compound, PRMT5/MEP50 complex or various reaction components also were prepared and processed in parallel with compound test samples. SAH was used as a positive control for assay validation. To measure PRMT5 inhibitory activity, 3 nM PRMT5/MEP50 complex (Reaction Biology Corporation) was preincubated with test compound in assay buffer containing 40 nM histone H4 peptide (amino acids 1-15)-Biotin conjugate for 20 min at room temperature. The enzymatic reaction was initiated by adding 1 μM tritiated S-adenosyl methionine (final concentration) and the reaction is allowed to proceed for 20 min. The reaction was stopped and the amount of bound, tritiated H4 peptide in each sample was determined using a scintillation counter. The IC50 value for each compound was calculated from each 10-point dose-response curve for samples plus and minus MTA using GraphPad Prism software and the results for exemplary compounds of Formula (I) is shown in Table 9a.

[6] = histone H4 peptide, absence of MTA, read-out: IC50
[7] = read-out: IC50 + 2 μM MTA, histone H4 peptide, presence of 2 μM MTA

recombinant human dual expressed Avi PRMT5/His-MEP50 protein, sequence (O14744 2-637): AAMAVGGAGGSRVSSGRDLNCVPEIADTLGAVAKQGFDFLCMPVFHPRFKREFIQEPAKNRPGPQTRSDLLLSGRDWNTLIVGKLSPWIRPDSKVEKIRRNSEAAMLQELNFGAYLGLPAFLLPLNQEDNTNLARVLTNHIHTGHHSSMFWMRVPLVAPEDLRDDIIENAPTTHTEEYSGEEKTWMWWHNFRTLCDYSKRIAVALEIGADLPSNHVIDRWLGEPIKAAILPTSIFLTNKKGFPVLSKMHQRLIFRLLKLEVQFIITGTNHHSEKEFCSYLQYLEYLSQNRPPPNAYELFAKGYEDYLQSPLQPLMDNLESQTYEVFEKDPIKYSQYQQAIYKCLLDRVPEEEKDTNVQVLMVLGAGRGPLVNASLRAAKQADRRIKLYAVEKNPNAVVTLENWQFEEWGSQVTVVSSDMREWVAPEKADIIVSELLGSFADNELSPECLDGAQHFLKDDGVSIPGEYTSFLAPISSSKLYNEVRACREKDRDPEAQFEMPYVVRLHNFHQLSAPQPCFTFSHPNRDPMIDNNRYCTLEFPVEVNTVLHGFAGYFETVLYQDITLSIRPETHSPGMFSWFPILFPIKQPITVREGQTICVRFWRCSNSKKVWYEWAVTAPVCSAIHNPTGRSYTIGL
recombinant human dual expressed Avi PRMT5/His-MEP50 protein, sequence (Q9BQA1 2-342 partner): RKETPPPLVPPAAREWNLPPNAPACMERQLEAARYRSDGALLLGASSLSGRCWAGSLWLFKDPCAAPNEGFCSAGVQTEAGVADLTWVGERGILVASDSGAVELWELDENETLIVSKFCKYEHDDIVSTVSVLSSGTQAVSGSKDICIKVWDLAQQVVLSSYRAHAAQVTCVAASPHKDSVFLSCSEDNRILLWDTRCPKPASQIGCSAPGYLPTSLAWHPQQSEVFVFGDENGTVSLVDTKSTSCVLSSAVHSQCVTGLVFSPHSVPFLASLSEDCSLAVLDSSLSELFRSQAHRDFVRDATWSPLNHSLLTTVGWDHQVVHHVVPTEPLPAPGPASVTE
PRMT5•SAM (biotinylated PRMT5-MEP50), sequence (O14744 whole entry): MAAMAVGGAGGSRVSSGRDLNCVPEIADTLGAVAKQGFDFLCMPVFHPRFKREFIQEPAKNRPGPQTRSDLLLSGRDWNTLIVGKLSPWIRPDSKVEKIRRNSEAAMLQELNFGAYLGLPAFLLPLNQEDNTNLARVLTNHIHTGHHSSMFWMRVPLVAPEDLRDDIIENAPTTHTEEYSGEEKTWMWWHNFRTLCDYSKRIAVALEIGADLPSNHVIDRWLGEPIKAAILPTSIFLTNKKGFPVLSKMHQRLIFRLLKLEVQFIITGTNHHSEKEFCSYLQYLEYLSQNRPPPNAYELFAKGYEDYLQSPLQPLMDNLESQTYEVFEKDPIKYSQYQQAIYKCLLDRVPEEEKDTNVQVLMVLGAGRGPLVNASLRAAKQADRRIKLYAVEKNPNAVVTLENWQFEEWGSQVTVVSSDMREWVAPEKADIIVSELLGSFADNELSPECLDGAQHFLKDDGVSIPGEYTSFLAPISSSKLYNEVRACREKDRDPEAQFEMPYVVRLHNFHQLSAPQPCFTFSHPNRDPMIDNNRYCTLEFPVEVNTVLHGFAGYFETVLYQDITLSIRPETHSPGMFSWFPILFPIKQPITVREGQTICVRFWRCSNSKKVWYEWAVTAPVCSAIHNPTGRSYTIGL
PRMT5•SAM (biotinylated PRMT5-MEP50), sequence (Q9BQA1 whole entry partner): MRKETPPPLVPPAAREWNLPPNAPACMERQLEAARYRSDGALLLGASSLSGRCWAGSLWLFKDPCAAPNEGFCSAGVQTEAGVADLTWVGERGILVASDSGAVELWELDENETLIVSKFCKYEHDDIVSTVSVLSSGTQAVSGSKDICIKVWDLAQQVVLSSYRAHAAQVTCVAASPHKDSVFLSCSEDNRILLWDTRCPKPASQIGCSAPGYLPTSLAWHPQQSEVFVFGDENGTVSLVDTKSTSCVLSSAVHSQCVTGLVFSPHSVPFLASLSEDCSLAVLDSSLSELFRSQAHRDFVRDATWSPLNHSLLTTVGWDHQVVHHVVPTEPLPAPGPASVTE
PRMT5•MTA (biotinylated PRMT5-MEP50), sequence (O14744 whole entry, the tested form may be a part): as the sequence (O14744 whole entry) above
PRMT5•MTA (biotinylated PRMT5-MEP50), sequence (Q9BQA1 whole entry partner, the tested form may be a part): as the sequence (Q9BQA1 whole entry partner) above
T1 sequence (O14744 whole entry): as the sequence (O14744 whole entry) above
T1 sequence (Q9BQA1 whole entry partner): as the sequence (Q9BQA1 whole entry partner) above

Row | Structure (SMILES) | pIC50 (PRMT5/MEP50 complex [1]) | pIC50 [2] | pKd [3] | pKd [4] | pIC50 (PRMT5/MEP50 complex [5]; [6]) | pIC50 (PRMT5/MEP50 complex [5]; [7])
1 | Cc1cc2[nH]c(C(=O)N(Cc3ccc(C(F)(F)F)cn3)C3CCCc4nccnc43)cc2nc1N (stereo in doubt) [Example 10-4, (R)-5-amino-6-methyl-N-(5,6,7,8-tetrahydroquinoxalin-5-yl)-N-((5-(trifluoromethyl)pyridin-2-yl)methyl)-1H-pyrrolo[3,2-b]pyridine-2-carboxamide] | 6.42 |  |  |  |  | 
2 | Cc1cc2ncc(C(=O)N(Cc3ccc(Br)cn3)[C@H](C)c3ncccn3)cc2nc1N [Example 10-8, (R)-6-amino-N-((5-bromopyridin-2-yl)methyl)-7-methyl-N-(1-(pyrimidin-2-yl)ethyl)-1,5-naphthyridine-3-carboxamide] | 7.22 |  |  |  |  | 
3 | Cc1cc2ncc(C(=O)N(Cc3ccc(C(F)(F)F)cn3)[C@@H]3CCCc4nccnc43)cc2nc1N [Example 10-6, (R)-6-amino-7-methyl-N-(5,6,7,8-tetrahydroquinoxalin-5-yl)-N-((5-(trifluoromethyl)pyridin-2-yl)methyl)-1,5-naphthyridine-3-carboxamide] | 6.03 |  |  |  |  | 
4 | CC(=O)N(Cc1cc2nc(N)c(C)cc2[nH]1)c1ccc2ccccc2c1C#N [Example 14-2, N-[(5-amino-6-methyl-1H-pyrrolo[3,2-b]pyridin-2-yl)methyl]-N—(I-cyano-2-naphthyl)acetamide] | 6.26 | 8.70 | 9.00 | 9.00 | 6.10 | 8.76
5 | Cc1cc2ncc(C(=O)N(Cc3ccc(Br)cn3)[C@@H](C)c3ncccn3)cc2nc1N [Example 10-7, (S)-6-amino-N-((5-bromopyridin-2-yl)methyl)-7-methyl-N-(1-(pyrimidin-2-yl)ethyl)-1,5-naphthyridine-3-carboxamide] | 4.79 |  |  |  |  | 
6 | Cc1cc2[nH]c(C(=O)N(Cc3ccc(C(F)(F)F)cn3)[C@H]3CCCc4nccnc43)cc2nc1N [Example 10-3, (S)-5-amino-6-methyl-N-(5,6,7,8-tetrahydroquinoxalin-5-yl)-N-((5-(trifluoromethyl)pyridin-2-yl)methyl)-1H-pyrrolo[3,2-b]pyridine-2-carboxamide] | 4.99 |  |  |  |  | 
7 | Cc1cc2ncc(C(=O)N(Cc3ccc(C(F)(F)F)cn3)[C@H]3CCCc4nccnc43)cc2nc1N [Example 10-5, (S)-6-amino-7-methyl-N-(5,6,7,8-tetrahydroquinoxalin-5-yl)-N-((5-(trifluoromethyl)pyridin-2-yl)methyl)-1,5-naphthyridine-3-carboxamide] | 4.83 |  |  |  |  | 
8 | Cc1cc2[nH]c(CN3C(=O)c4ccccc4C3=O)cc2nc1N [Example 14-1, 2-((5-amino-6-methyl-1H-pyrrolo[3,2-b]pyridin-2-yl)methyl)isoindoline-1,3-dione] | 6.20 | 8.15 | 9.00 | 8.22 | 5.00 | 7.92
9 | CC(=O)N(Cc1cnc2c(C)cc(N)nc2c1)c1ccc2ccccc2c1C#N [Example 7-5, N-[(6-amino-8-methyl-1,5-naphthyridin-3-yl)methyl]-N-(1-cyano-2-naphthyl)acetamide] | 5.87 | 8.52 | 8.70 | 8.70 | 5.19 | 7.69
10 | Cc1cc(N)nc2cc(C(=O)N(Cc3ccc(Br)cn3)[C@@H](C)c3ncccn3)cnc12 [Example 10-11, 6-amino-N-[(5-bromo-2-pyridyl)methyl]-8-methyl-N-[(1S)-1-pyrimidin-2-ylethyl]-1,5-naphthyridine-3-carboxamide] | 4.98 |  |  |  |  | 
